Legend:
Conditions in all cases: 1 µM, ATP at Km
[1] = molecular target: CAMKI (Homo sapiens, UniProt Q14012)
[2] = molecular target: TRKB (Homo sapiens, UniProt Q16620)
[3] = molecular target: EPHB2 (Homo sapiens, UniProt P29323)
[4] = molecular target: GCK (Homo sapiens, UniProt Q12851)
[5] = molecular target: TAO1 (Homo sapiens, UniProt Q7L7X3)
[6] = molecular target: AURKC (Homo sapiens, UniProt Q9UQB9)
[7] = molecular target: CKIT (Homo sapiens, UniProt P10721)
[8] = molecular target: BLK (Homo sapiens, UniProt P51451)
[9] = molecular target: ROCK-II (Homo sapiens, UniProt O75116)
[10] = molecular target: ARG (Homo sapiens, UniProt P42684)
[11] = molecular target: RSE (Homo sapiens, UniProt Q06418)
[12] = molecular target: ZAP-70 (Homo sapiens, UniProt P43403)
Sequence of ZAP-70 (P43403 whole entry): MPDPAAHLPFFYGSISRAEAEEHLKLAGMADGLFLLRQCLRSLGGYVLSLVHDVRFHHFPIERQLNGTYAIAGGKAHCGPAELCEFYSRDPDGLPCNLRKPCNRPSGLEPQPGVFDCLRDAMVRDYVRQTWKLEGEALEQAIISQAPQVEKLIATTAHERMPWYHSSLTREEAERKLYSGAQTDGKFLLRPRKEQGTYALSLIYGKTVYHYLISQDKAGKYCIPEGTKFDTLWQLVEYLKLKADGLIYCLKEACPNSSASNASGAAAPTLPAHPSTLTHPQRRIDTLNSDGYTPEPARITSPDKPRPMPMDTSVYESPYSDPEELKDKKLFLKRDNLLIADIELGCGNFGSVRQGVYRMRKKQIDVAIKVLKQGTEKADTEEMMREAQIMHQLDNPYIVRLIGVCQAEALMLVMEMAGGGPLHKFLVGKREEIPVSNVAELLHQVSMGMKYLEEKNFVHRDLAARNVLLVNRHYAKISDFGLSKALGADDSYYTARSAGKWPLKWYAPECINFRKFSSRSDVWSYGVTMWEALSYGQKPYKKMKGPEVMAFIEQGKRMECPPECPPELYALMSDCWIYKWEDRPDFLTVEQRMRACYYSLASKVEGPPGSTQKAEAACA

[13] = molecular target: ABL (Homo sapiens, UniProt P00519)
[14] = molecular target: MST1 (Homo sapiens, UniProt Q13043)
[15] = molecular target: BRSK1 (Homo sapiens, UniProt Q8TDC3)
Sequence of BRSK1 (Q8TDC3 whole entry): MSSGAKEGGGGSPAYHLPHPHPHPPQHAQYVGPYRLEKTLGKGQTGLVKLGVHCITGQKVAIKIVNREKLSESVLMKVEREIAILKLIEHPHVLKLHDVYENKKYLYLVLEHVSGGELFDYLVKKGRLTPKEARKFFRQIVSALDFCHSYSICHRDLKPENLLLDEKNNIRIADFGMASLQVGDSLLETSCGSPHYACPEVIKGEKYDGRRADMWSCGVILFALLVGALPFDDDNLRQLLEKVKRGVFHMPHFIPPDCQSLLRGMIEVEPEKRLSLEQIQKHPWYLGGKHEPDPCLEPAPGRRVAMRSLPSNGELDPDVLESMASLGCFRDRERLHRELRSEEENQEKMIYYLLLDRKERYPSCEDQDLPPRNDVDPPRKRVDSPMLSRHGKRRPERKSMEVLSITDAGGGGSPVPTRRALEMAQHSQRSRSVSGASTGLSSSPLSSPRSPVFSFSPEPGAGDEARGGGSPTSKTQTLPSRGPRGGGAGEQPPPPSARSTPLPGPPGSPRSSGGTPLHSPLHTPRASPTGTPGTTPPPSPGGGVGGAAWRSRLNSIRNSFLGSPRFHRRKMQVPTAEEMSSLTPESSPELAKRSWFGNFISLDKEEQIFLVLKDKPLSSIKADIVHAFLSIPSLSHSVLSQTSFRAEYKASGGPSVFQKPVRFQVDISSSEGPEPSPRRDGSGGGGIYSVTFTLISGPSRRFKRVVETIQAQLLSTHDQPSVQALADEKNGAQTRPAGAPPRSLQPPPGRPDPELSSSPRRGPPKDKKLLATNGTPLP

[16] = molecular target: SRPK1 (Homo sapiens, UniProt Q96SB4)
[17] = molecular target: […] (Homo sapiens, UniProt P16234)
[18] = molecular target: JNK3 (Homo sapiens, UniProt P53779)
[19] = molecular target: PAK2 (Homo sapiens, UniProt Q13177)
Sequence of PAK2 (Q13177 whole entry): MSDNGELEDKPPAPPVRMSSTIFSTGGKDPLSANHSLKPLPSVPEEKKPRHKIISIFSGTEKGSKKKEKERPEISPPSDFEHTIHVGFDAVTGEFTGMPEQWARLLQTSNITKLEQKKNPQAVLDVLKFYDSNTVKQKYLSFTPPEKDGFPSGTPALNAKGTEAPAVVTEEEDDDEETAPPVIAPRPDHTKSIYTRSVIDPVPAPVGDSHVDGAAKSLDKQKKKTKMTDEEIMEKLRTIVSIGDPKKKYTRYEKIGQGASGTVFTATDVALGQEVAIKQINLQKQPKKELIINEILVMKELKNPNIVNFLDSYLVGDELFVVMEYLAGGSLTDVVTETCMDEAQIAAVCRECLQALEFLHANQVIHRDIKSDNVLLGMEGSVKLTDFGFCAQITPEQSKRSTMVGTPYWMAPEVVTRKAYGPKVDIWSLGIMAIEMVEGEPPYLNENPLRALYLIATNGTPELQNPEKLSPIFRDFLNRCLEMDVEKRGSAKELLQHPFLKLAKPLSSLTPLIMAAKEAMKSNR

[20] = molecular target: GRK6 (Homo sapiens, UniProt P43250)
[21] = molecular target: CLK2 (Homo sapiens, UniProt P49760)
[22] = molecular target: BRK (Homo sapiens, UniProt Q13882)
[23] = molecular target: PAK4 (Homo sapiens, UniProt O96013)
[24] = molecular target: PRKAA2 (Homo sapiens, UniProt P54646)
[25] = molecular target: WNK3 (Homo sapiens, UniProt Q9BYP7)
[26] = molecular target: PKCGAMMA (Homo sapiens, UniProt P05129)
[27] = molecular target: FGFR2 (Homo sapiens, UniProt P21802)
[28] = molecular target: EGFR (Homo sapiens, UniProt P00533)
[29] = molecular target: LIMK1 (Homo sapiens, UniProt P53667)
[30] = molecular target: PKD2 (Homo sapiens, UniProt Q9BZL6)
[31] = molecular target: EPHA2 (Homo sapiens, UniProt P29317)
Sequence of EPHA2 (P29317 24-976): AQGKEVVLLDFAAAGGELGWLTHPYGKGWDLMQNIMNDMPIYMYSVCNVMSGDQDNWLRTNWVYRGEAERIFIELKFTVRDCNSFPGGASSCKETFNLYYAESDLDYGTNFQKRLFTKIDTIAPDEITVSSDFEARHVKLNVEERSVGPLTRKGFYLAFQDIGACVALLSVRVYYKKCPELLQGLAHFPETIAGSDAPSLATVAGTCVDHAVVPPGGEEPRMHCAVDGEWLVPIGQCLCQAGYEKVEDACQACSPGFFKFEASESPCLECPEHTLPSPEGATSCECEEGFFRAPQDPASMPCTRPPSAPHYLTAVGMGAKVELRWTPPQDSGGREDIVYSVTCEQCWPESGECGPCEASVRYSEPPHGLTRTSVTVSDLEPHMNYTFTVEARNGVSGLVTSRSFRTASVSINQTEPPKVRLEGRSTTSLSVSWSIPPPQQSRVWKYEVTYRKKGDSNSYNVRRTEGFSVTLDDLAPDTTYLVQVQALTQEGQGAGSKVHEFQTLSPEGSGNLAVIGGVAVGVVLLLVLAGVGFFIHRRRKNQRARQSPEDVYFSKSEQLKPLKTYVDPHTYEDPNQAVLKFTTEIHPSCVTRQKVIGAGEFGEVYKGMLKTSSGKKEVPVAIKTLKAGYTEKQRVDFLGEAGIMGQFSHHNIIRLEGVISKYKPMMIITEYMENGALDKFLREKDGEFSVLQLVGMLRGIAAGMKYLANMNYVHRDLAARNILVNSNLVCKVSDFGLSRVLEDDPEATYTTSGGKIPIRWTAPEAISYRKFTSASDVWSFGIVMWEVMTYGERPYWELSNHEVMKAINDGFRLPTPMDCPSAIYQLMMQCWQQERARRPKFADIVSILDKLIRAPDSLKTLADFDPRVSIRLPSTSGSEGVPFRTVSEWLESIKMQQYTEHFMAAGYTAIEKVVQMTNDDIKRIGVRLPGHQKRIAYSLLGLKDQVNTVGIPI

[32] = molecular target: IKKBETA (Homo sapiens, UniProt O14920)
[33] = molecular target: IGF-1R, ACTIVATED (Homo sapiens, UniProt P08069)
Sequence of IGF-1R, ACTIVATED (P08069 31-1367): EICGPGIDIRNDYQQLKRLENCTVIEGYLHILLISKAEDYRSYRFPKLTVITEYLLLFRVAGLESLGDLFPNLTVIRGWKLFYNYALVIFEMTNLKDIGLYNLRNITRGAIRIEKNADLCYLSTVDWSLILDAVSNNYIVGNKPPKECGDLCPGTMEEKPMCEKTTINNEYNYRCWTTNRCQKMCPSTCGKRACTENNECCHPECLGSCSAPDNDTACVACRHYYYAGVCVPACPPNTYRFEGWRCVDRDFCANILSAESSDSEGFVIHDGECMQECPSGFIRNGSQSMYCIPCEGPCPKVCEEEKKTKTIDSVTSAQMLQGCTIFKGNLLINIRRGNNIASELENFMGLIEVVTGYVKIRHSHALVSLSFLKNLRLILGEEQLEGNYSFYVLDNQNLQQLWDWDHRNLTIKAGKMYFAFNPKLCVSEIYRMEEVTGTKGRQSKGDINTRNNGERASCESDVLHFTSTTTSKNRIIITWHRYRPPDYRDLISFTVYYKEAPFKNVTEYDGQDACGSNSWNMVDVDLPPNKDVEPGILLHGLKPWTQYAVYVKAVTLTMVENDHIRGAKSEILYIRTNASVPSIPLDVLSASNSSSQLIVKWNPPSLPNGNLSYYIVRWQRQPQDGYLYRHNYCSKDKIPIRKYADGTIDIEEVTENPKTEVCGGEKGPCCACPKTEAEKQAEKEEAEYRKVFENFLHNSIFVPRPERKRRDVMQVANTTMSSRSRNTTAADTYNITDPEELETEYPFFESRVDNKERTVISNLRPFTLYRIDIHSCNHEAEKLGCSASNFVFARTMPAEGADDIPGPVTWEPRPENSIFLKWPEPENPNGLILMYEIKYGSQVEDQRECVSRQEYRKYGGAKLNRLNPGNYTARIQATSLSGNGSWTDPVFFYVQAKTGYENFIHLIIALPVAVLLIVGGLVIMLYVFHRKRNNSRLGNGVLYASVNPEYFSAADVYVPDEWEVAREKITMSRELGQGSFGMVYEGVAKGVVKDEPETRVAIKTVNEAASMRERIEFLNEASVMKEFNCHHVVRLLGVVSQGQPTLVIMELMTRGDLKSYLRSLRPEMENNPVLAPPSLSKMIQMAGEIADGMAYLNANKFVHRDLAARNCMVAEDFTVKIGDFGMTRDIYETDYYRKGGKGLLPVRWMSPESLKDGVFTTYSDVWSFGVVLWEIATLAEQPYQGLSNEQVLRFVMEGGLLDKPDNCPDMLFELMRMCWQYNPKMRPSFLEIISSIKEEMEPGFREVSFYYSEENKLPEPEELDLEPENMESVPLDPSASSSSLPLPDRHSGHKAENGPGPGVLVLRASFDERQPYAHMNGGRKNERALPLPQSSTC

[34] = molecular target: JAK2 (Homo sapiens, UniProt O60674)
[35] = molecular target: PHKGAMMA2 (Homo sapiens, UniProt P15735)
[36] = molecular target: CK1GAMMA3 (Homo sapiens, UniProt Q9Y6M4)
[37] = molecular target: HIPK1 (Homo sapiens, UniProt Q86Z02)
[38] = molecular target: PKCEPSILON (Homo sapiens, UniProt Q02156)
[39] = molecular target: NEK2 (Homo sapiens, UniProt P51955)
[40] = molecular target: SYK (Homo sapiens, UniProt P43405)
[41] = molecular target: PLK3 (Homo sapiens, UniProt Q9H4B4)
[42] = molecular target: RSK1 (Homo sapiens, UniProt Q15418)
[43] = molecular target: CDK1/CYCLINB (Homo sapiens, UniProt P06493)
[44] = molecular target: CSK (Homo sapiens, UniProt P41240)
[45] = molecular target: ZIPK (Homo sapiens, UniProt O43293)

Sequence of GCK (Q12851 whole entry): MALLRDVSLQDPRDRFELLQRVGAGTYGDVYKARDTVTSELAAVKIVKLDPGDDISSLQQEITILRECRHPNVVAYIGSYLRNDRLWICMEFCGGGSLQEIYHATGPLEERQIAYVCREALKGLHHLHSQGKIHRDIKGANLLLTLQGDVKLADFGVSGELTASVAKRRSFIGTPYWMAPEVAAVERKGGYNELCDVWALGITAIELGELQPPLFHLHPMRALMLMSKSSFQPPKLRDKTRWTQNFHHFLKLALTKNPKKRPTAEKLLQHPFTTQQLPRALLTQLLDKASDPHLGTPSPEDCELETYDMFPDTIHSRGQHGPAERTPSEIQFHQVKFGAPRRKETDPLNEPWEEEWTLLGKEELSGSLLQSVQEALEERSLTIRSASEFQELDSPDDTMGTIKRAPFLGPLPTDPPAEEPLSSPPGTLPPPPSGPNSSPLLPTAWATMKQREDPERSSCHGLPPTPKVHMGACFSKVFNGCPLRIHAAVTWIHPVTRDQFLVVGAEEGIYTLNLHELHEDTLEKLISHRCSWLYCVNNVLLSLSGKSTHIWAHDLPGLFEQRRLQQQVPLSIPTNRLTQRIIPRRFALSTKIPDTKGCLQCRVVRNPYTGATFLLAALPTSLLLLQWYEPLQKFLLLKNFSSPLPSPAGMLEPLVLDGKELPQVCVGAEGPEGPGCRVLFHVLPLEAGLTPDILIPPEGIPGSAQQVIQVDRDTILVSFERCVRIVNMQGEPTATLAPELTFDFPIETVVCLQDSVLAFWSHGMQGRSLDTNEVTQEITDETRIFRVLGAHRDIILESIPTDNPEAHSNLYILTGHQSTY

COC1CN(C(=O)c2ccc3c(N)ncc(-c4ccc(-c5cnn(C)c5)cc4)c3c2)C1 [Compound 59]
percentage effect [1]: -5%
percentage effect [2]: 0%
percentage effect [3]: 24%
percentage effect [4]: 1%
percentage effect [5]: 9%
percentage effect [6]: -10%
percentage effect [7]: -3%
percentage effect [8]: -26%
percentage effect [9]: -12%
percentage effect [10]: -7%
percentage effect [11]: -6%
percentage effect [12]: -6%
percentage effect [13]: -10%
percentage effect [14]: -10%
percentage effect [15]: 2%
percentage effect [16]: -24%
percentage effect [17]: 11%
percentage effect [18]: -8%
percentage effect [19]: -18%
percentage effect [20]: 8%
percentage effect [21]: -3%
percentage effect [22]: 5%
percentage effect [23]: 10%
percentage effect [24]: 2%
percentage effect [25]: 4%
percentage effect [26]: 9%
percentage effect [27]: -6%
percentage effect [28]: 14%
percentage effect [29]: 5%
percentage effect [30]: -5%
percentage effect [31]: 7%
percentage effect [32]: 8%
percentage effect [33]: -10%
percentage effect [34]: 3%
percentage effect [35]: 2%
percentage effect [36]: 19%
percentage effect [37]: 0%
percentage effect [38]: 8%
percentage effect [39]: -9%
percentage effect [40]: -11%
percentage effect [41]: 5%
percentage effect [42]: -14%
percentage effect [43]: -5%
percentage effect [44]: 7%
percentage effect [45]: -5%

COC1CN(C(=O)c2ccc3c(N)ncc(-c4ccc(-c5cnn(C)c5)cc4)c3n2)C1 [Compound 51]
percentage effect [1]: -10%
percentage effect [2]: -23%
percentage effect [3]: 7%
percentage effect [4]: -26%
percentage effect [5]: -1%
percentage effect [6]: 6%
percentage effect [7]: 1%
percentage effect [8]: 0%
percentage effect [9]: -2%
percentage effect [10]: 11%
percentage effect [11]: 17%
percentage effect [12]: -3%
percentage effect [13]: 20%
percentage effect [14]: 9%
percentage effect [15]: 6%
percentage effect [16]: 3%
percentage effect [17]: -3%
percentage effect [18]: -33%
percentage effect [19]: -17%
percentage effect [20]: 4%
percentage effect [21]: -18%
percentage effect [22]: 10%
percentage effect [23]: 4%
percentage effect [24]: -1%
percentage effect [25]: -9%
percentage effect [26]: -1%
percentage effect [27]: -3%
percentage effect [28]: -45%
percentage effect [29]: 0%
percentage effect [30]: -1%
percentage effect [31]: -12%
percentage effect [32]: -14%
percentage effect [33]: -18%
percentage effect [34]: -2%
percentage effect [35]: 10%
percentage effect [36]: -18%
percentage effect [37]: 5%
percentage effect [38]: 14%
percentage effect [39]: -5%
percentage effect [40]: -10%
percentage effect [41]: -9%
percentage effect [42]: 13%
percentage effect [43]: 1%
percentage effect [44]: 21%
percentage effect [45]: 25%

Reference: article PMC4904262 (ACS Medicinal Chemistry Letters, 2016)
